The assay deals with T1, Cytochrome P450 11B1, mitochondrial (Homo sapiens, UniProt P15538).
T1 sequence (P15538 whole entry): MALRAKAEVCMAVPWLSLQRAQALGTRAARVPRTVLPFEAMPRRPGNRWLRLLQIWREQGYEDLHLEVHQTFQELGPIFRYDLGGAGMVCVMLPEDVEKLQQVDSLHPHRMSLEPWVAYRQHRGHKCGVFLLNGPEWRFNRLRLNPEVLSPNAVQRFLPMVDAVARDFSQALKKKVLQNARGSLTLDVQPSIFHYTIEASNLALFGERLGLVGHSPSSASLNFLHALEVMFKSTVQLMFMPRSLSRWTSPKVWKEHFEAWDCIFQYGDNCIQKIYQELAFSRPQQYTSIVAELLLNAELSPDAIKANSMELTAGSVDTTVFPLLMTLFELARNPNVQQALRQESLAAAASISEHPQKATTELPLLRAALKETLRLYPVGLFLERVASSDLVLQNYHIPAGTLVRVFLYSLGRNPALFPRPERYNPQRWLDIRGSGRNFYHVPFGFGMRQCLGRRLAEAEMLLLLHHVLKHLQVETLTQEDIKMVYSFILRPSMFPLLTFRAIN
In words: CYP11B1 Inhibition Assay. As for the experimental part: The enzyme activity was assayed by monitoring the conversion of deoxycorticosterone to corticosterone in the presence of inhibitor compounds. The product formation was monitored by HPTLC using a phosphoimager system.

Molecules are shown by their SMILES.

Turning to `C[C@]12CC[C@H](O)CC1=CC[C@@H]1[C@@H]2CC[C@]2(C)C(c3cccnc3)=CC[C@@H]12` [ABT], the IC50 was found to be 1610 nM.
